{"source": "patent US20110086872A1", "about": "“Berberine as a selective lung cancer agent and other compositions and methods” (priority 2007, published 2011)", "key": {"[1]": {"test_system": "Lu1 human lung cancer cell line", "test": "Cytotoxic activity against Lu1 cancer cell line", "format": "cell-based", "conditions": "pure isolates", "method": "The CHCl3 was fractionated over a silica gel column (5×60 cm, 700 g, 63-200 μm). For the column chromatography, a CHCl3/MeOH gradient solvent system was applied with a gradual increase of the MeOH content. Fourteen fractions were collected based on the similarity of their TLC profiles. The fractions were then evaluated for their cytotoxic activity against Lu1 cancer cell line in order to determine the active fractions. […] (See FIG. 4, Table 2)."}, "[2]": {"test_system": "human cancer cell lines tested", "test": "Cytotoxic activity against panel of human cancer cell lines", "format": "cell-based"}, "[3]": {"target": "T1, human immunodeficiency virus-1 reverse transcriptase (HIV-1 RT) (Human immunodeficiency virus type 1 group M subtype B, UniProt P03366)", "T1 construct": "human immunodeficiency virus-1 reverse transcriptase (HIV-1 RT)", "format": "biochemical", "conditions": "no unit or quantity printed", "method": "(§1) The plant partitions were evaluated using in vitro bioassays based on a panel of human cancer cell lines: BC, Human Breast; Col2, Human Colon; KB, Human Carcinoma of the Nasopharynx; KBV1, Vinblastine-resistant KB; LNCaP, Hormone-dependent Human Prostate, and ZR75-1, Hormone-dependent Human Breast. These lines represent the main priorities for anticancer screening of the National Cancer Institute and have been well documented (Lin et al., J. Nat. Prod. 56: 22-29 (1993). In addition, samples were evaluated against the HIV-1 reverse transcriptase assay and, if active, against HIV-2 RT assay and a TIBO-resistant HIV-1 strain. Furthermore, some samples were tested for antimalarial activity (Angerhofer, Advances in Natural Products Chemistry, ed. Atta-ur-Rahman, pp 311-329 (1992)).\n(§2) Thus, extracts, fractions and isolated compounds of plants were evaluated against three basic disease states: cancer, AIDS and malaria according to the published and established protocols and procedures. […] ((Angerhofer, Advances in Natural Products Chemistry, ed. Atta-ur-Rahman, pp 311-329 (1992), Monks et al., J. Nat'l Cancer Inst. 83: 11, 757-766 (1991), Tan et al., J. Nat. Product 54:143-154 (1991), Tan et al., Biochem. Biophysics. Res. Commun. 185:370-378 (1992), Geran et al., Cancer Chemother. Rep., Part 3, 3: 1-17 (1972), Skehan et al., J. Nat'l Cancer Inst. 82:1107-1112 (1990).)"}, "[4]": {"test_system": "D6 clone of P. falciparum", "test": "Antimalarial activity, D6 clone", "format": "cell-based", "method": "as §1\nas §2, with “(1990).) […]” for “(1990).)”"}, "[5]": {"test_system": "W2 clone of P. falciparum", "test": "Antimalarial activity, W2 clone", "format": "cell-based", "method": "as §1\nas §2, with “(1990).) […]” for “(1990).)”"}, "[6]": {"test_system": "D6 clone of P. falciparum", "conditions": "Vennestrom and Klayman, 1988; read-out: literature IC50 against D6 clone of P. falciparum; cited from earlier work"}, "[7]": {"test_system": "W2 clone of P. falciparum", "conditions": "Vennestrom and Klayman, 1988; read-out: literature IC50 against W2 clone of P. falciparum; cited from earlier work"}, "[8]": {"test_system": "Colon, Col 2 human cancer cell line", "conditions": "cited from earlier work"}, "[9]": {"test_system": "Breast, BC1 human cancer cell line", "conditions": "cited from earlier work"}, "[10]": {"test_system": "Lung, Lu1 human cancer cell line", "conditions": "cited from earlier work"}}, "note": "Where two headings read alike, the source gives them in different places.", "data": [{"smiles": "COc1ccc2cc3[n+](cc2c1OC)CCc1cc2c(cc1-3)OCO2", "note": "[berberine]", "values": [{"measurement": "IC50", "setting": "[1]", "result": 11.9, "unit": "µM"}, {"measurement": "IC50", "setting": "[2]; Homo sapiens, cancer cell lines other than lung, read-out: IC50 values, other cancer cell lines tested", "result": "> 59.5", "unit": "µM"}, {"measurement": "anti-HIV activity against HIV-1 RT, value", "setting": "[3]", "result": 353.3}, {"measurement": "selectivity index (SI), D6", "setting": "[4]; D6 clone", "result": 53.6}, {"measurement": "IC50", "setting": "[4]; Plasmodium falciparum, D6, read-out: IC50 against D6 clone of P. falciparum", "result": 1.1, "unit": "µM"}, {"measurement": "IC50", "setting": "[5]; Plasmodium falciparum, W2, read-out: IC50 against W2 clone of P. falciparum", "result": 3.2, "unit": "µM"}, {"measurement": "selectivity index (SI), W2", "setting": "[5]; W2 clone", "result": 18.7}, {"measurement": "IC50", "setting": "[6]", "result": 0.42, "unit": "µM"}, {"measurement": "IC50", "setting": "[7]", "result": 0.44, "unit": "µM"}, {"measurement": "IC50", "setting": "[8]", "result": 40, "unit": "µM"}, {"measurement": "IC50", "setting": "[9]", "result": 2.74, "unit": "µM"}, {"measurement": "IC50", "setting": "[10]", "result": 25, "unit": "µM"}]}, {"smiles": "COc1ccc2c(c1OC)C(=O)N1CCc3cc4c(cc3C(=O)C21O)OCO4", "note": "(racemic) [(±)-Chilenine]", "values": [{"measurement": "IC50", "setting": "[2]; all cell lines of the panel, read-out: IC50 values against all of the human cancer cell lines tested", "result": "15.7 to 33.4", "unit": "µM"}]}]}
